Consider 5 compounds from patent publication US5714509A, “Inhibitors of bacterial sialidase and methods of making and using the same” (The University of Alabama, priority 1995, dated 1998).

Each structure is given as a SMILES string. pIC50, pKi: −log10 of the molar value.

The test system of experiment [1] is S. typhimurium sialidase. Particulars: substrate of S. typhimurium sialidase; cited from earlier work.
Experiment [2] addresses S. typhimurium sialidase. Particulars: cited from earlier work.
In experiment [3] the test system is influenza virus sialidase. Particulars: cited from earlier work; for pIC50: read-out: IC50 for influenza virus sialidase inhibition.
In experiment [4] the target is T1, bacterial sialidase (Micromonospora viridifaciens) (Micromonospora viridifaciens, UniProt Q02834).
T1 sequence (Q02834 38-647): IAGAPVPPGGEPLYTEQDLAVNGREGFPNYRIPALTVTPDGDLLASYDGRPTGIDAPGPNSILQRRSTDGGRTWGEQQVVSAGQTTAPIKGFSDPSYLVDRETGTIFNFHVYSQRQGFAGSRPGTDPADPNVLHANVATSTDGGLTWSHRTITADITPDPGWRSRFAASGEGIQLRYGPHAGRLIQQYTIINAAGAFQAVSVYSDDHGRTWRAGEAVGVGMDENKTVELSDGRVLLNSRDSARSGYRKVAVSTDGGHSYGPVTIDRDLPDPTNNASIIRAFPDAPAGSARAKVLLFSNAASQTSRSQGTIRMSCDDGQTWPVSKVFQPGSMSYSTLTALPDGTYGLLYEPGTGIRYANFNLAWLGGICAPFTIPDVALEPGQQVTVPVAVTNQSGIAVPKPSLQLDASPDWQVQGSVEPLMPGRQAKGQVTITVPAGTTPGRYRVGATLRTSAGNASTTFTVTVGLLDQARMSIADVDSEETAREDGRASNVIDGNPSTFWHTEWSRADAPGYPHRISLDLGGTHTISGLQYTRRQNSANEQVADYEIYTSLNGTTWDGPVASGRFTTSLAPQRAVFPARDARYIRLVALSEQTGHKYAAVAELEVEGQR
The experiment in a line: Inhibition of bacterial sialidase (Micromonospora viridifaciens), fluorescence assay with MUN. It counts as biochemical. As to conditions: 10 mM inhibitor, 0.1 mM MUN, pH 6.0, 37° C., 15 minutes.

In the case of `CC(=O)NC1C(O)CC(Oc2ccc3c(C)cc(=O)oc3c2)(C(=O)O)OC1C(O)C(O)CO` [MUN, 4-methylumbelliferyl-a-D-N-acetylneuraminic acid], in experiment [1], the Km (commonly the substrate concentration at which the rate is half of its maximum) was 250 µM and the turnover number is listed as 2,700 sec^-1.
As to `CC(=O)N[C@H]1[C@H]([C@H](O)[C@H](O)CO)OC(C(=O)O)=C[C@@H]1O` [Neu5Ac2en], in experiment [2], the pKi – broadly, the negative decadic logarithm of the Ki, by convention in mol/L – was 3.42. The pIC50 – broadly, the IC50 on a negative log10 scale, so that one unit is a factor of ten – in experiment [3] was around 2.00.
`CC(=O)Nc1c(O)cc(C(=O)O)cc1[N+](=O)[O-]` [HNBA, 4-acetylamino-3-hydroxyl-5-nitro-benzoic acid]: in experiment [4], the “inhibition of bacterial sialidase (in words)” value is on record as “inhibited bacterial sialidase with efficiencies similar to Neu5Ac2en”. For the same compound, the “inhibition of type A and B influenza virus sialidase (in words)” value in experiment [3] (both type A and B) was “potent inhibitors”. Further, in experiment [3], the “inhibition of influenza virus sialidase (in words)” value is on record as “millimolar” and the negative-log IC50 (pIC50) was around 2.00.
For `CC(=O)N[C@H]1[C@H]([C@H](O)[C@H](O)CO)OC(C(=O)O)=C[C@@H]1N=C(N)N` [4-guanidino-Neu5Ac2en], the “inhibition selectivity for influenza virus sialidase versus bacterial sialidases” value in experiment [3] (influenza virus versus bacterial sialidases) was “inhibition selectivity of 4-guanidino-Neu5Ac2en for influenza virus sialidase versus bacterial sialidases”.
As to `CC(=O)N[C@H]1[C@H]([C@H](O)[C@H](O)CO)OC(O)(C(=O)O)C[C@@H]1O` (stereo partly shown) [Neu5Ac], the “inhibition by high levels of the cleavage product” value in experiment [2] (high levels, compared to influenza virus sialidase) is reported as “do not inhibit the bacterial sialidase”.
